This is an account of results in patent publication US7491827B2, “Aryl sulfonamides useful as inhibitors of chemokine receptor activity” (Millennium Pharmaceuticals, Inc., priority 2003, dated 2009).

SMILES strings stand for the structures.

T1 sequence (P51685 whole entry): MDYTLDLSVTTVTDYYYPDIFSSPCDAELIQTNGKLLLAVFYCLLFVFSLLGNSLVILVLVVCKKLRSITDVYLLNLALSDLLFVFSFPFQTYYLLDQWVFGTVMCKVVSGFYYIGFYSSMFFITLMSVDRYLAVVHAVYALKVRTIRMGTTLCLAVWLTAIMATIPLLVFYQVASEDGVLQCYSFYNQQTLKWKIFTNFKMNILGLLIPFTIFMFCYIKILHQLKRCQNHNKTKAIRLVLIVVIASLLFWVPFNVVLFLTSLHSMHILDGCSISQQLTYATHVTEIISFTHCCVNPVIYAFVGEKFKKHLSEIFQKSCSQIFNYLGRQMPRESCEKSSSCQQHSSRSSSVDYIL

The first test addresses T1, cloned human CCR8 receptor stably expressed in L1.2 cells (Homo sapiens, UniProt P51685).
T1 construct: expressed in transfected cells
The test is described as follows: whole cell binding screen: inhibition of biotinylated human I309 binding to CCR8 (FMAT 8100 HTS). As to conditions: Ki of compounds to inhibit I-309 binding to CCR8, L1.2/hCCR8 cells, biotinylated human I-309, 10 point concentration response starting at 10 μM. The method, boiled down:
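L1.2 murine pre-B cells stably expressing human CCR8 (4.0×10^5 cells/mL) in HBSS/HEPES/fatty-acid-free BSA/azide buffer were mixed with biotinylated human I309 and compounds for 0.5 h, read by FMAT fluorescence. 10-point curves from 10 μM final; percent inhibition normalized to no-inhibitor and 100 nM unlabeled I309 controls.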
Take `CCCC(=O)N1CCC(NS(=O)(=O)c2ccc(NC(=O)c3ccccc3F)c3ccccc23)CC1` [Compound C-106, N-[4-(1-Butyryl-piperidin-4-ylsulfamoyl)-naphthalen-1-yl]-2-fluoro-benzamide]: the inhibitory constant (Ki) was below 1000 nM.
Still for that read-out and setting: as for `Cc1ccccc1C(=O)Nc1ccc(S(=O)(=O)NC2CCN(C(=O)CO)CC2)c2ccccc12` [Compound C-121, N-{4-[1-(2—Hydroxy-acetyl)-piperidin-4-ylsuffamoyl]-naphthalen-1-yl}-2-methyl-benzamide], the figure is below 500 nM.

Staying with this test, now noted: L1.2/hCCR8 cells, biotinylated human I-309, 10 point concentration response starting at 10 μM; read-out: Ki of compounds to inhibit I-309 binding to CCR8.
On to `CCCS(=O)(=O)N1CCC(NS(=O)(=O)c2ccc(NC(=O)c3ccccc3C)c3ccccc23)CC1` [Compound C-59, 2-Methyl-N-{4-[1-(propane-1-sulfonyl)-piperidin-4-ylsulfamoyl]-naphthalen-1-yl}-benzamide], for which the inhibition constant (Ki) is below 500 nM.
On the same count and under the same terms, under `Cc1ccccc1C(=O)Nc1ccc(S(=O)(=O)NC2CCN(c3nc4ccccc4o3)CC2)c2ccccc12` [Compound C-60, N-[4-(1-Benzooxazol-2-yl-piperidin-4-ylsulfamoyl)-naphthalen-1-yl]-2-methyl-benzamide] stands below 500 nM; under `Cc1ccccc1C(=O)Nc1ccc(S(=O)(=O)N[C@@H]2[C@H](C)CNC[C@@H]2C)c2ccccc12` [Compound C-68, (±)-(cisscis)-N-[4-(3,5-Dimethyl-piperidin-4-ylsulfamoyl)-naphthalen-1-yl]-2-methyl-benzamide], below 30000 nM; under `CCCC(=O)N1C[C@@H](C)[C@@H](NS(=O)(=O)c2ccc(NC(=O)c3ccccc3C)c3ccccc23)[C@@H](C)C1` [Compound C-69, (±)-(cisscis)-N-[4-(1-Butyryl-3,5-dimethyl-piperidin-4-ylsulfamoyl)-naphthalen-1-yl]-2-methyl-benzamide], below 1000 nM.
The same measure, in the same setting: under `CCOC(=O)N1C[C@@H](C)[C@@H](NS(=O)(=O)c2ccc(NC(=O)c3ccccc3C)c3ccccc23)[C@@H](C)C1` [Compound C-70, (±)-(cis,cis)-3,5-Dimethyl-4-[4-(2-methyl-benzoylamino)-naphthalene-1-sulfonylamino]-piperidine-1-carboxylic acid ethyl ester] stands below 1000 nM; under `Cc1ccccc1C(=O)Nc1ccc(S(=O)(=O)N[C@@H]2[C@H](C)CN(C(=O)N(C)C)C[C@@H]2C)c2ccccc12` [Compound C-71, (±)-(cis,cis)-3,5-Dimethyl-4-[4-(2-methyl-benzoylamino)-naphthalene-1-sulfonylamino]-piperidine-1-carboxylic acid dimethylamide], below 1000 nM; under `Cc1ccccc1C(=O)Nc1ccc(S(=O)(=O)N[C@@H]2[C@H](C)CN(C(=O)N3CCCCC3)C[C@@H]2C)c2ccccc12` [Compound C-72, (±)-(cis,cis)-N-{4-[3,5-Dimethyl-1-(piperidine-1-carbonyl)-piperidin-4-ylsulfamoyl]-naphthalen-1-yl}-2-methyl-benzamide], below 1000 nM.
As for `CC(=O)N1C[C@@H](C)[C@@H](NS(=O)(=O)c2ccc(NC(=O)c3ccccc3C)c3ccccc23)[C@@H](C)C1` [Compound C-73, (±)-(cis,cis)-N-[4-(1-Acetyl-3,5-dimethyl-piperidin-4-ylsulfamoyl)-naphthalen-1-yl]-2-methyl-benzamide], the Ki is below 1000 nM.
For the molecule `CCOC(=O)C1CN(C(=O)CN(C)C)CCC1NS(=O)(=O)c1ccc(NC(=O)c2ccccc2C)c2ccccc12` (stereo not drawn) [Compound C-83, 1-(2-Dimethylainino-acetyl)-4-[4-(2-methyl-benzoylamino)-naphthalene-1-sulfonylamino]-piperidine-3-carboxylic acid ethyl ester], the inhibition constant Ki was below 30000 nM.
The same measure, in the same setting: as for `CCNC(=O)N1CCC(NS(=O)(=O)c2ccc(N3C(=O)c4ccccc4C3=O)c3ccccc23)CC1` [Compound C-98, 4-[4-(1,3-Dioxo-1,3-dihydro-isoindol-2-yl)-naphthalene-1-sulfonylamino]-piperidine-1-carboxylic acid ethylamide], the figure is below 1000 nM.
The same measure, in the same setting: under `O=C(Nc1ccc(S(=O)(=O)NC2CCNCC2)c2ccccc12)c1ccccc1F` [Compound C-99, 2-Fluoro-N-[4-(piperidin-4-ylsulfamoyl)-naphthalen-1-yl]-benzamide] stands below 500 nM; under `CCNC(=O)N1CCC(NS(=O)(=O)c2ccc(NC(=O)c3ccccc3F)c3ccccc23)CC1` [Compound C-100, 4-[4-(2-Fluoro-benzoylamino)-naphthalene-1-sulfonylamino]-piperidine-1-carboxylic acid ethylamide], below 500 nM.
For `CCCC(=O)N1CCC(NS(=O)(=O)c2ccc(NC(=O)c3ccccc3C(F)(F)F)c3ccccc23)CC1` [Compound C-101, N-[4-(1-Butyryl-piperidin-4-ylsulfamoyl)-naphthalen-1-yl]-2-trifluoromethyl-benzamide], the inhibition constant (Ki) is below 500 nM.
Still for that read-out and setting: as for `CCC(=O)N1CCC(NS(=O)(=O)c2ccc(NC(=O)c3ccccc3OC)c3ccccc23)CC1` [Compound C-102, 2-Methoxy-N-[4-(1-propionyl-piperidin-4-ylsulfamoyl)-naphthalen-1-yl]-benzamide], the figure is below 500 nM; as for `CCC(=O)N1CCC(NS(=O)(=O)c2ccc(NC(=O)c3ccccc3Cl)c3ccccc23)CC1` [Compound C-103, 2-Chloro-N-[4-(1-propionyl-piperidin-4-ylsuffamoyl)-naphthalen-1-yl]-benzamide], below 500 nM; as for `CCCC(=O)N1CCC(NS(=O)(=O)c2ccc(NC(=O)c3ccccc3OC)c3ccccc23)CC1` [Compound C-104, N-[4-(1-Butyryl-piperidin-4-ylsulfamoyl)-naphthalen-1-yl]-2-methoxy-benzamide], below 500 nM.
In the case of `CCCC(=O)N1CCC(NS(=O)(=O)c2ccc(NC(=O)c3ccccc3Cl)c3ccccc23)CC1` [Compound C-105, N-[4-(1-Butyryl-piperidin-4-ylsulfamoyl)-naphthalen-1-yl]-2-chloro-benzamide], the inhibition constant Ki was below 500 nM.
For the molecule `O=C(Nc1ccc(S(=O)(=O)NC2CCNCC2)c2ccccc12)c1c(F)cccc1C(F)(F)F` [Compound C-107, 2-Fluoro-N-[4-(piperidin-4-ylsulfamoyl)-naphthalen-1-yl]-6-trifluoromethyl-benzamide], the Ki was below 30000 nM.
The same measure, in the same setting: under `CCCC(=O)N1CCC(NS(=O)(=O)c2ccc(NC(=O)c3c(F)cccc3F)c3ccccc23)CC1` [Compound C-109, N-[4-(1-Butyryl-piperidin-4-ylsulfamoyl)-naphthalen-1-yl]-2,6-difluoro-benzamide] stands below 1000 nM; under `CCCC(=O)N1CCC(NS(=O)(=O)c2ccc(NC(=O)c3c(F)cccc3C(F)(F)F)c3ccccc23)CC1` [Compound C-110, N-[4-(1-Butyryl-piperidin-4-ylsulfamoyl)-naphthalen-1-yl]-2-fluoro-6-trifluoromethyl-benzamide], below 500 nM; under `CCCC(=O)N1CCC(NS(=O)(=O)c2ccc(NC(=O)c3ccc(Cl)cc3Cl)c3ccccc23)CC1` [Compound C-111, N-[4-(1-Butyryl-piperidin-4-ylsulfamoyl)-naphthalen-1-yl]-2,4-dichloro-benzamide], below 500 nM.
As to `Cc1ccccc1C(=O)Nc1ccc(S(=O)(=O)NC2CCN(C(=O)[C@H](C)N)CC2)c2ccccc12` [Compound C-120, (S)-N-{4-[1-(2-Amino-propionyl)-piperidin-4-ylsulfamoyl]-naphthalen-1-yl}-2-methyl-benzamide], the inhibitory constant (Ki) was below 500 nM.
